Measurements taken from publication PMC10714399, “Open Source Antibiotics: Simple Diarylimidazoles Are Potent against Methicillin-Resistant Staphylococcus aureus” (ACS Infectious Diseases, 2023).
Values after ≈ are worked out from the molar mass of the structure shown. Values joined by “and” are separate entries in the source; they are usually repeats but may differ in a detail not shown here. Equal entries are not always repeated. Where two headings read alike, the source gives them in different places.

Columns and labels:
[1] = test system: S. aureus ATCC 25923 (methicillin-susceptible); experiment: In vitro antibacterial activity, MIC (UCL), MSSA; assay type: cell-based, Staphylococcus aureus; conditions: for MIC: Staphylococcus aureus
Method in brief: (§1)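 Broth microdilution MIC in isosensitest broth; inoculum from overnight tryptone soya agar culture suspended in PBS to A600 0.1 (~1 × 10^8 CFU/mL), then diluted 1:100. Compounds tested as 2-fold series from 32 to 0.03 μg/mL, DMSO at most 2%; vancomycin as quality control.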

[2] = test system: MRC-5SV2 (human lung fibroblast cell line); experiment: Toxicity against MRC-5SV2; assay type: cell-based
Method: (§2) ADME and toxicity for compounds were measured according to procedures outlined in the manuscript submitted in parallel to this one;2 other procedures were used for those compounds analysed by Monash University (in vitro ADME) or UCL (toxicity), both described in the main

[3] = test system: Enterococcus faecalis ATCC 51299 (vanA-positive; vancomycin-resistant); experiment: In vitro antibacterial activity, MIC (UCL), VRE; assay type: cell-based
Method in brief: as §1

[4] = test system: PMM (primary mouse macrophages); experiment: Toxicity against PMM; assay type: cell-based
Method: as §2

VSE = experiment: In vitro antibacterial activity, MIC, VSE; assay type: cell-based
[5] = test system: Staphylococcus aureus NCTC 13373 (mecA-positive; methicillin-resistant); experiment: In vitro antibacterial activity, MIC (UCL School of Pharmacy assay), MRSA; assay type: cell-based; conditions: for MIC: Staphylococcus aureus
Method in brief: as §1

Aqueous solubility = assay type: physicochemical; conditions: NEU; for solubility: thermodynamic from solid, read-out: Aqueous Solubility (NEU)
Excerpt: To guide our initial SAR exploration work, we obtained liver microsomal intrinsic clearance data for 5 of the 18 compounds assayed by CO-ADD (Supporting Information - CDCO Report and Supporting Information - Biology). We then acquired intrinsic clearance (CLint), plasma protein binding (PPB), and solubility data on further compounds throughout the SAR campaign (Supporting Information - Biology, Tables S3 and S4). […] The more polar compounds (lower LogD) had reduced PPB and were more metabolically stable.
(§3) Table S4. ADME and Pharmacokinetics: compounds only appearing in the Supplementary […]
(§4) MRSA Aqueous HLM CLint Rat Hep CLint
(§5) Cmpd MIC Solubility Human PPB (%) (µL/min/mg (µL/min/10x6 LogD7.4
(§6) (µg/mL) (µM) protein) cells)
as §2

[6] = Human plasma protein binding (PPB); assay type: in vitro ADME; conditions: human, plasma, human plasma, NEU; read-out: Human PPB (NEU) (converted)
Excerpt: (§7) To guide our initial SAR exploration work, we obtained liver microsomal intrinsic clearance data for 5 of the 18 compounds assayed by CO-ADD (Supporting Information - CDCO Report and Supporting Information - Biology). We then acquired intrinsic clearance (CLint), plasma protein binding (PPB), and solubility data on further compounds throughout the SAR campaign (Supporting Information - Biology, Tables S3 and S4).
as §3, §4, §5, §6, §2

[7] = Human liver microsome intrinsic clearance; assay type: in vitro ADME; conditions: human liver microsomes, NEU
Excerpt: as §7, §3, §4, §5, §6, §2

[8] = Rat hepatocyte intrinsic clearance; assay type: in vitro ADME; conditions: rat hepatocytes, NEU; for hepatocyte CLint: read-out: Rat Hep CLint (NEU)
Excerpt: as §7, §3, §4, §5, §6, §2

SMILES | MIC ([1]; read-out: MSSA MIC (UCL)) [µg/mL] | MRC5 TC50 ([2]; MRC5 cells) [µM] | MIC ([3]; read-out: VRE MIC (UCL)) [µg/mL] | PMM TC50 ([4]; PMM) [µM] | MIC (VSE; read-out: VSE MIC (UCL)) [µg/mL] | MIC ([5]; UCL, read-out: MRSA MIC (UCL)) [µg/mL] | MRC5 TC50 [2] [µg/mL] | PMM TC50 [4] [µg/mL] | MSSA MIC [1] [µg/mL] | VRE MIC [3] [µg/mL] | VSE MIC (VSE) [µg/mL] | MRSA MIC [5] | further results
N#CCc1ccc(-n2c(-c3ccccn3)nc3ccccc32)cc1 [OSA_000996] | 32 (≈ 103 µM) | 64 | > 32 | 64 | > 32 | > 32 |  |  |  |  |  |  | 
Fc1ccc(-c2c(-c3ccccn3)nc3ccccn23)cn1 [compound 986] |  |  |  |  |  |  |  |  |  |  |  |  | MIC ([1]; read-out: MSSA MIC): > 32 µg/mL; MIC ([3]; read-out: VRE MIC): > 32 µg/mL; MIC (VSE; read-out: VSE MIC): > 32 µg/mL; activity against MRSA, in words [5]: inactive; MIC ([5]; read-out: MRSA MIC): > 32 µg/mL
Fc1ccc(Nc2c(-c3ccccn3)nc3ccccn23)cc1 [compound 987] |  |  |  |  |  |  | 2.3 | 9.7 |  |  |  |  | MIC ([1]; read-out: MSSA MIC): 16 µg/mL (≈ 52.6 µM); MIC ([3]; read-out: VRE MIC): 32 µg/mL (≈ 105 µM); MIC (VSE; read-out: VSE MIC): 32 µg/mL (≈ 105 µM); MIC ([5]; read-out: MRSA MIC): 8 µg/mL (≈ 26.3 µM)
c1ccc(-c2nc3ccccc3n2-c2ccc(N3CCCCC3)cc2)nc1 [compound 994] |  |  |  |  |  |  | 7.0 | 5.4 | 32 | 32 | 32 | 16 µg/mL | 
c1ccc(-c2nc3ccccc3n2-c2ccc(N3CCCCC3)cc2)nc1 [OSA_000994] | 32 (≈ 90.3 µM) | 19.81 | 32 (≈ 90.3 µM) | 15.32 | 32 (≈ 90.3 µM) | 16 (≈ 45.1 µM) |  |  |  |  |  |  | 
Clc1ccn2c(-c3ccc4occc4c3)c(-c3ccccn3)nc2c1 [OSA_000985] | 8 (≈ 23.1 µM) |  | 16 (≈ 46.3 µM) |  | 16 (≈ 46.3 µM) | 8 (≈ 23.1 µM) |  |  |  |  |  |  | 
OC1CCn2c1nc(-c1ccccn1)c2-c1ccc2occc2c1 (stereo not drawn) [compound 997] | > 32 |  | > 32 |  | > 32 | > 32 |  |  |  |  |  |  | MIC ([1]; read-out: MSSA MIC): > 32 µg/mL; MIC ([3]; read-out: VRE MIC): > 32 µg/mL; MIC (VSE; read-out: VSE MIC): > 32 µg/mL; activity against MRSA, in words [5]: inactive; MIC ([5]; 16 h, read-out: MRSA MIC): > 32 µg/mL; MIC ([5]; read-out: MRSA MIC): > 32 µg/mL
c1ccc(-n2c(-c3ccccn3)nc3ccccc32)cc1 [compound 992] |  |  |  |  |  |  | 17.4 | 17.4 | > 32 | > 32 | > 32 | > 32 µg/mL and 32 µg/mL | 
c1ccc(Cn2c(-c3ccccn3)nc3ccccc32)cc1 [compound 993] |  |  |  |  |  |  | 18.3 | 18.3 | > 32 | > 32 | > 32 | > 32 µg/mL and 32 µg/mL | 
CCN(c1ccc(F)cc1)c1c(-c2ccccn2)nc2ccccn12 [OSA_000981] | 2 (≈ 6.02 µM) | 4.9 | 8 (≈ 24.1 µM) | 8 |  | 2 (≈ 6.02 µM) |  |  |  |  |  |  | solubility (Aqueous solubility): 31 µM (≈ 10.3 µg/mL); fraction unbound [6]: 0.022; HLM CLint (NEU) [7]: 180 uL/min/mg protein; hepatocyte CLint [8]: 148 µL/min/1e6 cells
c1ccc(Cn2c(-c3ccccn3)nc3ccccc32)cc1 [OSA_000993] | > 32 | 64 | > 32 | 64 | > 32 | > 32 |  |  |  |  |  |  | 
c1ccc(-n2c(-c3ccccn3)nc3ccccc32)cc1 [OSA_000992] | > 32 | 64 | > 32 | 64 | > 32 | > 32 |  |  |  |  |  |  | 
N#CCc1ccc(-n2c(-c3ccccn3)nc3ccccc32)cc1 [compound 996] |  |  |  |  |  |  | 19.9 | 19.9 | 32 | > 32 | > 32 | > 32 µg/mL and 32 µg/mL | 
N#Cc1ccc(-n2c(-c3ccccn3)nc3ccccc32)cc1 [OSA_000990] | > 32 | 64 | > 32 | 64 | > 32 | > 32 |  |  |  |  |  |  | 
NC(=O)c1ccc(-n2c(-c3ccccn3)nc3ccccc32)cc1 [compound 989] |  |  |  |  |  |  | 20.1 | 20.1 | > 32 | > 32 | > 32 | > 32 µg/mL and 32 µg/mL | 
Clc1ccn2c(-c3ccc4occc4c3)c(-c3ccccn3)nc2c1 [compound 985] |  |  |  |  |  |  |  |  | 8 | 16 | 16 | 8 µg/mL | 
N#Cc1ccc(-n2c(-c3ccccn3)nc3ccccc32)cc1 [compound 990] |  |  |  |  |  |  | 19.0 | 19.0 | > 32 | > 32 | > 32 | > 32 µg/mL and 32 µg/mL | 
c1ccc(-c2nc3ccccc3n2-c2ccc3occc3c2)nc1 [OSA_000991] | > 32 | 64 | > 32 | 38.63 | > 32 | > 32 |  |  |  |  |  |  | 
c1ccc(-c2nc3ccccc3n2-c2ccc(N3CCOCC3)cc2)nc1 [OSA_000995] | > 32 | 64 | > 32 | 64 | > 32 | > 32 |  |  |  |  |  |  | 
COc1ccc2nc(-c3ccccn3)c(N(C)c3cc(F)cc(F)c3)n2c1 [compound 998] |  |  |  |  |  |  |  |  | 8 | 32 | 16 | 8 µg/mL | 
COc1ccc2nc(-c3ccccn3)c(N(C)c3ccc(F)cc3)n2c1 [OSA_000980] | 4 (≈ 11.5 µM) | 2 | 8 (≈ 23 µM) | 8 |  | 4 (≈ 11.5 µM) |  |  |  |  |  |  | solubility (Aqueous solubility): 17 µM (≈ 5.92 µg/mL); fraction unbound [6]: 0.02; HLM CLint (NEU) [7]: 251 uL/min/mg protein; hepatocyte CLint [8]: > 300 µL/min/1e6 cells
NC(=O)c1ccc(-n2c(-c3ccccn3)nc3ccccc32)cc1 [OSA_000989] | > 32 | 64 | > 32 | 64 | > 32 | > 32 |  |  |  |  |  |  | 
CCCN(c1ccc(F)cc1)c1c(-c2ccccn2)nc2ccccn12 [OSA_000982] | 2 (≈ 5.77 µM) | 4.3 | 4 (≈ 11.5 µM) | 2 |  | 2 (≈ 5.77 µM) |  |  |  |  |  |  | Aqueous Solubility (NEU) (Aqueous solubility): 3 µM; fraction unbound [6]: 0.0073; HLM CLint (NEU) [7]: 61.8 uL/min/mg protein; Rat Hep CLint (NEU) [8]: 108 uL/min/10x6 cells
Cc1ccc(Nc2c(-c3ccccn3)nc3ccccn23)cc1 [compound 988] |  |  |  |  |  |  |  |  |  |  |  |  | MIC ([1]; read-out: MSSA MIC): 4 µg/mL (≈ 13.3 µM); MIC ([3]; read-out: VRE MIC): 16 µg/mL (≈ 53.3 µM); MIC (VSE; read-out: VSE MIC): 16 µg/mL (≈ 53.3 µM); MIC ([5]; read-out: MRSA MIC): 4 µg/mL (≈ 13.3 µM)
c1ccc(-c2nc3ccccc3n2-c2ccc3occc3c2)nc1 [compound 991] |  |  |  |  |  |  | 19.9 | 12.0 | > 32 | > 32 | > 32 |  | 
Cc1ccc(Nc2c(-c3ccccn3)nc3ccccn23)cc1 [OSA_000988] | 4 (≈ 13.3 µM) |  | 16 (≈ 53.3 µM) |  | 16 (≈ 53.3 µM) | 4 (≈ 13.3 µM) |  |  |  |  |  |  | fraction unbound [6]: 0.007; microsomal CLint ([7]; read-out: HLM CLint (NEU)): 86.9 µL/min/mg; hepatocyte CLint [8]: > 300 µL/min/1e6 cells
Fc1cc(-c2c(-c3ccccn3)nc3ccccn23)ccn1 [OSA_000986] | > 32 |  | > 32 |  | > 32 | > 32 |  |  |  |  |  |  | 
CC(C)CN(c1ccc(F)cc1)c1c(-c2ccccn2)nc2ccccn12 [OSA_000983] | 4 (≈ 11.1 µM) | 54 | 8 (≈ 22.2 µM) | 23 |  | 2 (≈ 5.55 µM) |  |  |  |  |  |  | Aqueous Solubility (NEU) (Aqueous solubility): 8 µM; fraction unbound [6]: 0.0042; HLM CLint (NEU) [7]: 58.8 uL/min/mg protein; Rat Hep CLint (NEU) [8]: 234 uL/min/10x6 cells
COc1ccnc(-c2nc3cc(OC)ccn3c2N(C)c2ccc(F)cc2)c1 [compound 1000] |  |  |  |  |  |  |  |  | 8 | 8 | 8 | 2 µg/mL | 
c1ccc(-c2nc3ccccc3n2-c2ccc(N3CCOCC3)cc2)nc1 [compound 995] |  |  |  |  |  |  | 22.8 | 22.8 | > 32 | > 32 | > 32 | > 32 µg/mL and 32 µg/mL | 
